The target in the experiment is T1, LHRH rat pituitary receptor (Rattus norvegicus, UniProt P30969).
T1 construct: from tissue; host or cells: rat pituitary
T1 sequence (P30969 1-327): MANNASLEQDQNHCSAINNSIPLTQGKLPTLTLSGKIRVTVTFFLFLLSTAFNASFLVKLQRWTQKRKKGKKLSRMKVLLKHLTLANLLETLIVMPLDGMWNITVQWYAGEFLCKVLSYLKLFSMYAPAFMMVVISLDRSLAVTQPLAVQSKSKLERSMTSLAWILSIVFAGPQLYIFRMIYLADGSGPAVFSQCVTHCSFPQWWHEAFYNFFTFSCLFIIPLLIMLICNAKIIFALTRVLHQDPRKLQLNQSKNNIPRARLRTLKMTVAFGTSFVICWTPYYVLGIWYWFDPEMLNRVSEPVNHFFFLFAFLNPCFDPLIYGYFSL
Nature of the experiment: LHRH rat pituitary receptor binding (pKI). Particulars: negative logarithm of the equilibrium dissociation constants; for Ki: Table 1, read-out: receptor binding affinity (pKI) (converted). On the procedure: Representative compounds of the present invention were evaluated in in vitro tests for LHRH rat pituitary receptor binding (pKI) and for LH inhibition from rat pituitary cells for antagonist potency (pA2). The tests employed the methods detailed in F. Haviv, et al. J. Med. Chem., 32: 2340-2344 (1989). The receptor binding affinity (pKI) is the negative logarithm of the equilibrium dissociation constants.

Turning to `CC[C@H]1OC(=O)[C@H](C)[C@@H](O[C@H]2C[C@@](C)(OC)[C@@H](O)[C@H](C)O2)[C@H](C)[C@@H](O[C@@H]2O[C@H](C)C[C@H](N(C)Cc3ccc(C)c4ccccc34)[C@H]2O)[C@](C)(OC)C[C@@H](C)C(=O)[C@H](C)[C@H]2N(CCc3ccc(Cl)c(Cl)c3)C(=O)O[C@]12C` [Example 73, 3'-N-Desmethyl-3'-N-(4-methyl-1-napthylmethyl)-11-deoxy-11-[carboxy-(3,4-dichlorophenethylamino)]-6-O-methyl-erythromycin A 11,12-(cyclic carbamate)], the Ki was 0.214 nM.
On the same count and under the same terms, the result for `CC[C@H]1OC(=O)[C@H](C)[C@@H](O[C@H]2C[C@@](C)(OC)[C@@H](O)[C@H](C)O2)[C@H](C)[C@@H](O[C@@H]2O[C@H](C)C[C@H](N(C)Cc3ccc(N(C)C)c4ccccc34)[C@H]2O)[C@](C)(OC)C[C@@H](C)C(=O)[C@H](C)[C@H]2N(CCc3ccc(Cl)c(Cl)c3)C(=O)O[C@]12C` [Example 74, 3'-N-Desmethyl-3'-N-(4-dimethylamino-1-napthylmethyl)-11-deoxy-11-[carboxy-(3,4-dichlorophenethylamino)]-6-O-methyl-erythromycin A 11,12-(cyclic carbamate)] reads 3.16 nM; that for `CC[C@H]1OC(=O)[C@H](C)[C@@H](O[C@H]2C[C@@](C)(OC)[C@@H](O)[C@H](C)O2)[C@H](C)[C@@H](O[C@@H]2O[C@H](C)C[C@H](N(C)Cc3ccco3)[C@H]2O)[C@](C)(OC)C[C@@H](C)C(=O)[C@H](C)[C@H]2N(CCc3ccc(Cl)c(Cl)c3)C(=O)O[C@]12C` [Example 75, 3'-N-Desmethyl-3'-N-(2-furylmethyl)-11-deoxy-11-[carboxy-(3,4-dichlorophenethylamino)]-6-O-methyl-erythromycin A 11,12-(cyclic carbamate)], 1.26 nM; that for `CC[C@H]1OC(=O)[C@H](C)[C@@H](O[C@H]2C[C@@](C)(OC)[C@@H](O)[C@H](C)O2)[C@H](C)[C@@H](O[C@@H]2O[C@H](C)C[C@H](N(C)CCCc3ccncc3)[C@H]2O)[C@](C)(OC)C[C@@H](C)C(=O)[C@H](C)[C@H]2N(CCc3ccc(Cl)c(Cl)c3)C(=O)O[C@]12C` [Example 76, 3'-N-Desmethyl-3'-N-[3-(4-pyridyl)propyl]-11-deoxy-11-[carboxy-(3,4-dichlorophenethylamino)]-6-O-methyl-erythromycin A 11,12-(cyclic carbamate)], 9.12 nM.
As for `CC[C@H]1OC(=O)[C@H](C)[C@@H](O[C@H]2C[C@@](C)(OC)[C@@H](O)[C@H](C)O2)[C@H](C)[C@@H](O[C@@H]2O[C@H](C)C[C@H](N(C)CCCc3ccccn3)[C@H]2O)[C@](C)(OC)C[C@@H](C)C(=O)[C@H](C)[C@H]2N(CCc3ccc(Cl)c(Cl)c3)C(=O)O[C@]12C` [Example 77, 3'-N-Desmethyl-3'-N-[3-(2-pyridyl)propyl]-11-deoxy-11-[carboxy-(3,4-dichlorophenethylamino)]-6-O-methyl-erythromycin A 11,12-(cyclic carbamate)], the Ki is 6.17 nM.
Turning to `CC[C@H]1OC(=O)[C@H](C)[C@@H](O[C@H]2C[C@@](C)(OC)[C@@H](O)[C@H](C)O2)[C@H](C)[C@@H](O[C@@H]2O[C@H](C)C[C@H](N(C)CCCCc3ccncc3)[C@H]2O)[C@](C)(OC)C[C@@H](C)C(=O)[C@H](C)[C@H]2N(CCc3ccc(Cl)c(Cl)c3)C(=O)O[C@]12C` [Example 78, 3'-N-Desmethyl-3'-N-[4-(4-pyridyl)butyl]-11-deoxy-11-[carboxy-(3,4-dichlorophenethylamino)]-6-O-methyl-erythromycin A 11,12-(cyclic carbamate)], the Ki was 7.94 nM.
Same read-out and setting: then `CC[C@H]1OC(=O)[C@H](C)[C@@H](O[C@H]2C[C@@](C)(OC)[C@@H](O)[C@H](C)O2)[C@H](C)[C@@H](O[C@@H]2O[C@H](C)C[C@H](N(C)CCCc3cccnc3)[C@H]2O)[C@](C)(OC)C[C@@H](C)C(=O)[C@H](C)[C@H]2N(CCc3ccc(F)c(Cl)c3)C(=O)O[C@]12C` [Example 80, 3'-N-Desmethyl-3'-N-[3-(3-pyridyl)propyl]-11-deoxy-11-[carboxy-(3-chloro-4-fluorophenethylamino)]-6-O-methyl-erythromycin A 11,12-(cyclic carbamate)], with 3.98 nM; and `CC[C@H]1OC(=O)[C@H](C)[C@@H](O[C@H]2C[C@@](C)(OC)[C@@H](O)[C@H](C)O2)[C@H](C)[C@@H](O[C@@H]2O[C@H](C)C[C@H](N(C)CCCc3ccncc3)[C@H]2O)[C@](C)(OC)C[C@@H](C)C(=O)[C@H](C)[C@H]2N(CCc3ccc(F)c(Cl)c3)C(=O)O[C@]12C` [Example 81, 3'-N-Desmethyl-3'-N-[3-(4-pyridyl)propyl]-11-deoxy-11-[carboxy-(3-chloro-4-fluorophenethylamino)]-6-O-methyl-erythromycin A 11,12-(cyclic carbamate)], with 4.37 nM.
Regarding `CC[C@H]1OC(=O)[C@H](C)[C@@H](O[C@H]2C[C@@](C)(OC)[C@@H](O)[C@H](C)O2)[C@H](C)[C@@H](O[C@@H]2O[C@H](C)C[C@H](N(C)CCCc3ccccn3)[C@H]2O)[C@](C)(OC)C[C@@H](C)C(=O)[C@H](C)[C@H]2N(CCc3ccc(F)c(Cl)c3)C(=O)O[C@]12C` [Example 82, 3'-N-Desmethyl-3'-N-[3-(2-pyridyl)propyl]-11-deoxy-11-[carboxy-(3-chloro-4-fluorophenethylamino)]-6-O-methyl-erythromycin A 11,12-(cyclic carbamate)], the Ki is 2.29 nM.
Take `CC[C@H]1OC(=O)[C@H](C)[C@@H](O[C@H]2C[C@@](C)(OC)[C@@H](O)[C@H](C)O2)[C@H](C)[C@@H](O[C@@H]2O[C@H](C)C[C@H](N(C)CCCCc3ccncc3)[C@H]2O)[C@](C)(OC)C[C@@H](C)C(=O)[C@H](C)[C@H]2N(CCc3ccc(F)c(Cl)c3)C(=O)O[C@]12C` [Example 83, 3'-N-Desmethyl-3'-N-[4-(4-pyridyl)butyl]-11-deoxy-11-[carboxy-(3-chloro-4-fluorophenethylamino)]-6-O-methyl-erythromycin A 11,12-(cyclic carbamate)]: the “receptor binding affinity (pKI)” value (Table 1) stood at 8.46.
Take `CC[C@H]1OC(=O)[C@H](C)[C@@H](O[C@H]2C[C@@](C)(OC)[C@@H](O)[C@H](C)O2)[C@H](C)[C@@H](O[C@@H]2O[C@H](C)C[C@H](N(C)CCCCc3cccc(C)n3)[C@H]2O)[C@](C)(OC)C[C@@H](C)C(=O)[C@H](C)[C@H]2N(CCc3ccc(F)c(Cl)c3)C(=O)O[C@]12C` [Example 84, 3'-N-Desmethyl-3'-N-[4-(6-methyl)-2-pyridyl]butyl-11-deoxy-11-[carboxy-(3-chloro-4-fluorophenethylamino)]-6-O-methyl-erythromycin A 11,12-(cyclic carbamate)]: the Ki is 7.08 nM.
Turning to `CC[C@H]1OC(=O)[C@H](C)[C@@H](O[C@H]2C[C@@](C)(OC)[C@@H](O)[C@H](C)O2)[C@H](C)[C@@H](O[C@@H]2O[C@H](C)C[C@H](N(C)C(C)CCc3ccc(O)cc3)[C@H]2O)[C@](C)(OC)C[C@@H](C)C(=O)[C@H](C)[C@H]2N(CCc3ccc(Cl)c(Cl)c3)C(=O)O[C@]12C` (stereo partly drawn) [Example 85, 3'-N-Desmethyl-3'-N-(1-methyl)[3-(4-hydroxy)phenyl]propyl-11-deoxy-11-[carboxy-(3,4-dichlorophenethylamino)]-6-O-methyl-erythromycin A 11,12-(cyclic carbamate)], the Ki is 5.89 nM.
